Assay [1] deals with full-length activated BTK (wildtype) (Homo sapiens (Human), UniProt Q06187). Put plainly: AlphaScreen assay, wild-type BTK. The assay is classed as biochemical. On the technique in general: Bead proximity is the source of the signal in Alpha formats.
The target of assay [2] is full-length activated BTK mutant C481S (Homo sapiens (Human), UniProt Q06187, C481S). As to the kind of experiment: AlphaScreen assay, BTK mutant C481S. The assay is classed as biochemical. The conditions noted are these: for inhibition at 10 µM: read-out: BTK-C481S % @ 10 uM, @ 10 uM.

We go through 17 compounds from patent publication US11020398B2, “Amino-pyrrolopyrimidinone compounds and methods of use thereof” (ArQule, Inc., priority 2016, dated 2021).

Chain of full-length activated BTK (wildtype) (Q06187 whole entry): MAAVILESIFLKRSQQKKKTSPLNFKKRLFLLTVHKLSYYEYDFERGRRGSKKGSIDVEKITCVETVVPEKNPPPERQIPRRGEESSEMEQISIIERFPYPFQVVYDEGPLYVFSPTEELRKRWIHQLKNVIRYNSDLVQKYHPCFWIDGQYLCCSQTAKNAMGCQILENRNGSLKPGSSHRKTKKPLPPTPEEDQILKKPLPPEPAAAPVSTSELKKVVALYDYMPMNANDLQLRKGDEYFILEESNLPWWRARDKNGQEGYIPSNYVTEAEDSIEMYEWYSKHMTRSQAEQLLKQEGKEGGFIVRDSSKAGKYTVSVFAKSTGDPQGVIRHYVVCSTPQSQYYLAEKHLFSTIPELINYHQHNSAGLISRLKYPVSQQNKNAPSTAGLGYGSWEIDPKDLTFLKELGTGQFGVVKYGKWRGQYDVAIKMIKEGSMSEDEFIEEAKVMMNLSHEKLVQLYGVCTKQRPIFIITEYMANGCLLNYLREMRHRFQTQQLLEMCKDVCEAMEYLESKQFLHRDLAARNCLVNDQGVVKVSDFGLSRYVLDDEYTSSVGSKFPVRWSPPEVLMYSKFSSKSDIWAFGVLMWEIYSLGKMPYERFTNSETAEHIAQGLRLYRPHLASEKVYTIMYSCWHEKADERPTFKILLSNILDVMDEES
Chain of full-length activated BTK mutant C481S (Q06187 whole entry C481S): as the sequence (Q06187 whole entry) above, with C481S counted along it

Broadly, the IC50 is the concentration that gives 50% inhibition. As for `O=C(Nc1ccncc1)c1ccc(C(=O)c2c[nH]c3ncnc(N[C@@H]4CC[C@@H](CO)OC4)c23)c(Cl)c1` [Compound I-246, 3-chloro-4-(4-(((3R,6S)-6-(hydroxymethyl)tetrahydro-2H-pyran-3-yl)amino)-7H-pyrrolo[2,3-d]pyrimidine-5-carbonyl)-N-(pyridin-4-yl)benzamide], the IC50 was 103 nM in assay [1] and 514 nM in assay [2].
The matching figures for `COCCOc1ccc(C(=O)c2c[nH]c3ncnc(N[C@@H]4CC[C@@H](CO)OC4)c23)cc1` [Compound I-318i, (4-(((3R,6S)-6-(hydroxymethyl)tetrahydro-2H-pyran-3-yl)amino)-7H-pyrrolo[2,3-d]pyrimidin-5-yl)(4-(2-methoxyethoxy)phenyl)methanone]: 423 nM and 714 nM.
On the same counts, the results for `O=C(Nc1ccc(Cl)c(C(=O)c2c[nH]c3ncnc(N[C@@H]4CC[C@@H](CO)OC4)c23)c1)c1ccccc1` [Compound I-601, N-(4-chloro-3-(4-(((3R,6S)-6-(hydroxymethyl)tetrahydro-2H-pyran-3-yl)amino)-7H-pyrrolo[2,3-d]pyrimidine-5-carbonyl)phenyl)benzamide] are 20.9 nM and 116 nM.
Consider `Cn1cc(NC(=O)c2cccc(C(=O)c3c[nH]c4ncnc(N[C@@H]5CC[C@@H](CO)OC5)c34)c2)cn1` [Compound I-638, 3-(4-(((3R,6S)-6-(hydroxymethyl)tetrahydro-2H-pyran-3-yl)amino)-7H-pyrrolo[2,3-d]pyrimidine-5-carbonyl)-N-(1-methyl-1H-pyrazol-4-yl)benzamide], for which the inhibition at 10 µM in assay [1] (read-out: BTK % @ 10 uM, @ 10 uM) was found to be 63%; in assay [2], 54%.
As for `O=C(Nc1ccc(Cl)c(C(=O)c2c[nH]c3ncnc(N[C@@H]4CC[C@@H](CO)OC4)c23)c1)c1cncs1` [Compound I-604, N-(4-chloro-3-(4-(((3R,6S)-6-(hydroxymethyl)tetrahydro-2H-pyran-3-yl)amino)-7H-pyrrolo[2,3-d]pyrimidine-5-carbonyl)phenyl)thiazole-5-carboxamide], the IC50 in assay [1] was 304 nM; in assay [2] it was 731 nM.
The matching figures for `O=C(Nc1ccccc1)c1cccc(C(=O)c2c[nH]c3ncnc(N[C@@H]4CC[C@@H](CO)OC4)c23)c1` [Compound I-634, 3-(4-(((3R,6S)-6-(hydroxymethyl)tetrahydro-2H-pyran-3-yl)amino)-7H-pyrrolo[2,3-d]pyrimidine-5-carbonyl)-N-phenylbenzamide]: 620 nM and 690 nM.
Take `O=C(NCCN1CCOCC1)c1ccc(Cl)c(C(=O)c2c[nH]c3ncnc(N[C@@H]4CC[C@@H](CO)OC4)c23)c1` [Compound I-626, 4-chloro-3-(4-(((3R,6S)-6-(hydroxymethyl)tetrahydro-2H-pyran-3-yl)amino)-7H-pyrrolo[2,3-d]pyrimidine-5-carbonyl)-N-(2-morpholinoethyl) benzamide]: the results for the IC50 in assay [1] and in assay [2] were 164 nM and 757 nM, respectively.
With `O=C(c1ccc(NC(=O)C2(c3ccccc3)CC2)cc1Cl)c1c[nH]c2ncnc(N[C@@H]3CC[C@@H](CO)OC3)c12` [Compound I-640, N-(3-chloro-4-(4-(((3R,6S)-6-(hydroxymethyl)tetrahydro-2H-pyran-3-yl)amino)-7H-pyrrolo[2,3-d]pyrimidine-5-carbonyl)phenyl)-1-phenylcyclopropane-1-carboxamide], the IC50 in assay [1] was 69.5 nM; in assay [2] it was 203 nM.
In the case of `CN1CCN(C(=O)c2ccc(Cl)c(C(=O)c3c[nH]c4ncnc(N[C@@H]5CC[C@@H](CO)OC5)c34)c2)CC1` [Compound I-622, (4-chloro-3-(4-(((3R,6S)-6-(hydroxymethyl)tetrahydro-2H-pyran-3-yl)amino)-7H-pyrrolo[2,3-d]pyrimidine-5-carbonyl)phenyl)(4-methylpiperazin-1-yl)methanone], the IC50 in assay [1] was 847 nM. Further, the inhibition at 10 µM in assay [2] is 62%.
Consider `O=C(NCc1ccccc1)c1ccc(Cl)c(C(=O)c2c[nH]c3ncnc(N[C@@H]4CC[C@@H](CO)OC4)c23)c1` [Compound I-628, N-benzyl-4-chloro-3-(4-(((3R,6S)-6-(hydroxymethyl)tetrahydro-2H-pyran-3-yl)amino)-7H-pyrrolo[2,3-d]pyrimidine-5-carbonyl)benzamide], for which the figures for the IC50 in assay [1] and in assay [2] were 59.7 nM and 161 nM, respectively.
The matching figures for `O=C(c1ccc(Oc2ccccc2)cc1Cl)c1c[nH]c2ncnc(NC[C@H]3CCC[C@@H](CO)N3)c12` (racemic) [Compound I-359e, racemic-cis-(2-chloro-4-phenoxyphenyl)(4-(((6-(hydroxymethyl)piperidin-2-yl)methyl)amino)-7H-pyrrolo[2,3-d]pyrimidin-5-yl)methanone]: 29.4 nM and 124 nM.
On the same counts, the results for `O=C(c1ccc(Oc2ccccc2)cc1Cl)c1c[nH]c2ncnc(N[C@H]3CN[C@H](CO)C3)c12` [Compound I-345e, (2-chloro-4-phenoxyphenyl)(4-(((3R,5S)-5-(hydroxymethyl)pyrrolidin-3-yl)amino)-7H-pyrrolo[2,3-d]pyrimidin-5-yl)methanone] are 10.1 nM and 68.2 nM.
On the same counts, the results for `O=C(c1cc(NC(=O)C2(c3ccccc3)CC2)ccc1Cl)c1c[nH]c2ncnc(N[C@@H]3CC[C@@H](CO)OC3)c12` [Compound I-605, N-(4-chloro-3-(4-(((3R,6S)-6-(hydroxymethyl)tetrahydro-2H-pyran-3-yl)amino)-7H-pyrrolo[2,3-d]pyrimidine-5-carbonyl)phenyl)-1-phenylcyclopropane-1-carboxamide] are 467 nM and 1860 nM.
`CC(=O)N1C[C@H](Nc2ncnc3[nH]cc(C(=O)c4ccc(Oc5ccccc5)cc4Cl)c23)C[C@H]1CO` [Compound I-655, 1-((2S,4R)-4-((5-(2-chloro-4-phenoxybenzoyl)-7H-pyrrolo[2,3-d]pyrimidin-4-yl)amino)-2-(hydroxymethyl)pyrrolidin-1-yl)ethan-1-one]: the IC50 stood at 44.5 nM in assay [1] and 52 nM in assay [2].
The matching figures for `CS(=O)(=O)N1C[C@H](Nc2ncnc3[nH]cc(C(=O)c4ccc(Oc5ccccc5)cc4Cl)c23)C[C@H]1CO` [Compound I-656, (2-chloro-4-phenoxyphenyl)(4-(((3R,5S)-5-(hydroxymethyl)-1-(methylsulfonyl)pyrrolidin-3-yl)amino)-7H-pyrrolo[2,3-d]pyrimidin-5-yl)methanone]: 123 nM and 254 nM.
In the case of `O=C(c1ccc(N2CCOCC2)cc1Cl)c1c[nH]c2ncnc(N[C@@H]3CC[C@@H](CO)OC3)c12` [Compound I-311i, (2-chloro-4-morpholinophenyl)(4-(((3R,6S)-6-(hydroxymethyl)tetrahydro-2H-pyran-3-yl)amino)-7H-pyrrolo[2,3-d]pyrimidin-5-yl)methanone], the IC50 in assay [1] turned out to be 867 nM. The inhibition at 10 µM in assay [2] was determined as 81%.
On to `C=CS(=O)(=O)N1CCCC1CNc1ncnc2[nH]cc(C(=O)c3ccc(Oc4ccccc4)cc3Cl)c12` (racemic) [Compound I-326r, (racemic)-(2-chloro-4-phenoxyphenyl)(4-(((1-(vinylsulfonyl)pyrrolidin-2-yl)methyl)amino)-7H-pyrrolo[2,3-d]pyrimidin-5-yl)methanone], for which the IC50 worked out at 4.33 nM in assay [1] and 419 nM in assay [2].
